The values that follow come from patent publication EP0908457B1, “3-(1,2-benzisothiazol- and isoxazol-5-Y1)-2,4(1H,3H)-pyrimidinedione or thione and 3-(1,2-benzisothiazol- and isoxazol-5-y1)-4(3H)-pyrimidinone or thione herbicidal agents” (BASF AKTIENGESELLSCHAFT, priority 1997, dated 1999).

Data set [1] relates to Oryza sativa, (L.) Tebonnet. As to the kind of experiment: Rice tolerance to post-transplant applications under flooded paddy conditions (Example 187), ORYSAT (Rice, Tebonnet). As to herbicidal effect rating ORYSAT: meaning of each grade not given here. Conditions: for ORYSAT: herbicidal effect rating 0-9, three to four weeks after treatment; for herbicidal effect rating, ORYSAT (rice tolerance) / herbicidal effect rating ORYSAT / ORYSAT herbicidal effect rating: rated three to four weeks after treatment.

Data set [2] has as its system Monochoria vaginalis, Presl. Description: Preemergence weed control under flooded paddy conditions, MOOVA (Monochoria). As to herbicidal effect rating, MOOVA: meaning of each grade not given here. It is filed as in vivo. Conditions: flooded paddy; for MOOVA: preemergence weeds, herbicidal effect rating 0-9, three to four weeks after treatment; for herbicidal effect rating, MOOVA / MOOVA herbicidal effect rating: preemergence, rated three to four weeks after treatment.

Data set [3] has as its system Echinochloa oryzoides (Ard.) Fritsch. Description: Preemergence weed control under flooded paddy conditions, ECHORC (Watergrass (Calif.)). As to herbicidal effect rating, ECHORC: meaning of each grade not given here. Type of data set: in vivo. The conditions noted are these: flooded paddy; for ECHORC: preemergence weeds, herbicidal effect rating 0-9, three to four weeks after treatment; for herbicidal effect rating, ECHORC / ECHORC herbicidal effect rating: preemergence, rated three to four weeks after treatment.

A further data set relates to Sagittaria pygmaea, L. As to the kind of experiment: Preemergence weed control under flooded paddy conditions, SAGPY (Arrowhead (Pygmaea)). As to herbicidal effect rating, SAGPY: meaning of each grade not given here. The conditions noted are these: flooded paddy; for SAGPY: preemergence weeds, herbicidal effect rating 0-9, three to four weeks after treatment; for herbicidal effect rating, SAGPY / SAGPY herbicidal effect rating: preemergence, rated three to four weeks after treatment. It is filed as in vivo.

Data set [4] concerns Cyperus serotinus, Rottb. As to the kind of experiment: Preemergence weed control under flooded paddy conditions, CYPSE (Flatsedge). As to herbicidal effect rating, CYPSE: meaning of each grade not given here. It is filed as in vivo. Conditions: for CYPSE: preemergence weeds, herbicidal effect rating 0-9, three to four weeks after treatment; for herbicidal effect rating, CYPSE / CYPSE herbicidal effect rating: preemergence, rated three to four weeks after treatment.

The next data set relates to Cyperus iria. Description: Preemergence weed control under flooded paddy conditions, CYPIR (Rice Flatsedge). As to herbicidal effect rating, CYPIR: meaning of each grade not given here. It is filed as in vivo. The conditions noted are these: flooded paddy; for CYPIR: preemergence weeds, herbicidal effect rating 0-9, three to four weeks after treatment; for herbicidal effect rating, CYPIR / CYPIR herbicidal effect rating: preemergence, rated three to four weeks after treatment.

SMILES strings stand for the structures.

On to `COC(=O)COc1cc2c(cc1-c1nsc3ccc(-n4c(=O)cc(C(F)(F)F)n(C)c4=O)cc13)CCC2` [Example 434, Acetic acid, {{6-{5-[3,6-dihydro-3-methyl-2,6-dioxo-4-(trifluoromethyl)-1(2H)-pyrimidinyl]-1,2-benzisothiazol-3-yl}-5-indanyl}oxy}-, methyl ester], for which the ORYSAT in data set [1] (0.0320 kg/ha) turned out to be 4.0; in data set [1] (0.0620 kg/ha), 6.0; in data set [1] (0.1250 kg/ha), 6.0; in data set [1] (0.2500 kg/ha) it was 7.0. Further, the MOOVA in data set [2] (0.0320 kg/ha), in data set [2] (0.0620 kg/ha), in data set [2] (0.1250 kg/ha) and in data set [2] (0.2500 kg/ha) was 9.0 throughout. The ECHORC in data set [3] (0.0320 kg/ha) is given as 6.0; in data set [3] (0.0620 kg/ha), 7.0; in data set [3] (0.1250 kg/ha), 7.0; in data set [3] (0.2500 kg/ha) it was 9.0. The SAGPY in the data set with Sagittaria pygmaea, L. (0.0320 kg/ha) amounted to 4.0; with Sagittaria pygmaea, L. (0.0620 kg/ha), 4.0; in the data set with Sagittaria pygmaea, L. (0.1250 kg/ha), 5.0; in the data set with Sagittaria pygmaea, L. (0.2500 kg/ha), 6.0. Besides, the CYPSE was found to be 4.0 in data set [4] (0.0320 kg/ha), 4.0 in data set [4] (0.1250 kg/ha) and 7.0 in data set [4] (0.2500 kg/ha). Also, the CYPIR amounted to 3.0 in the data set with Cyperus iria (0.0320 kg/ha), 3.0 in the data set on Cyperus iria (0.0620 kg/ha), 7.0 in the data set with Cyperus iria (0.1250 kg/ha) and 8.0 in the data set with Cyperus iria (0.2500 kg/ha).

Regarding `Cn1c(C(F)(F)F)cc(=O)n(-c2ccc3snc(C(=O)NS(=O)(=O)Cc4ccccc4[N+](=O)[O-])c3c2)c1=O` [Example 404, 1,2-Benzisothiazole-3-carboxamide, 5-[3,6-dihydro-3-methyl-2,6-dioxo-4-(trifluoromethyl)-1(2H)-pyrimidinyl]-N-[(o-nitrobenzyl)sulfonyl]-], the ORYSAT in data set [1] (0.0320 kg/ha) is reported as 0.0; in data set [1] (0.0620 kg/ha) it was 0.0; in data set [1] (0.1250 kg/ha), 0.0; in data set [1] (0.2500 kg/ha) it was 2.0. Further, the MOOVA in data set [2] (0.0320 kg/ha) turned out to be 4.0; in data set [2] (0.0620 kg/ha), 5.0; in data set [2] (0.1250 kg/ha) it was 5.0; in data set [2] (0.2500 kg/ha) it was 6.0. In addition, the ECHORC in data set [3] (0.0320 kg/ha) stood at 0.0; in data set [3] (0.0620 kg/ha), 3.0; in data set [3] (0.1250 kg/ha), 6.0; in data set [3] (0.2500 kg/ha), 7.0. The SAGPY with Sagittaria pygmaea, L. (0.0320 kg/ha) came to 0.0; with Sagittaria pygmaea, L. (0.0620 kg/ha), 0.0; in the data set with Sagittaria pygmaea, L. (0.1250 kg/ha), 0.0; in the data set on Sagittaria pygmaea, L. (0.2500 kg/ha), 0.0. Also, the CYPSE in data set [4] (0.0320 kg/ha), in data set [4] (0.0620 kg/ha), in data set [4] (0.1250 kg/ha) and in data set [4] (0.2500 kg/ha) was 0.0 throughout. Also, the CYPIR with Cyperus iria (0.0320 kg/ha) is given as 0.0; with Cyperus iria (0.0620 kg/ha), 0.0; in the data set with Cyperus iria (0.1250 kg/ha), 2.0; in the data set on Cyperus iria (0.2500 kg/ha), 6.0.

`Cc1ccc(OCC#N)c(-c2nsc3ccc(-n4c(=O)cc(C(F)(F)F)n(C)c4=O)cc23)c1` [Example 57, 3-{3-[6-(Cyanomethoxy)-m-tolyl]-1,2-benzisothiazol-5-yl}-1-methyl-6-(trifluoromethyl)-2,4(1H,3H)-pyrimidinedione]: the “herbicidal effect rating, ORYSAT (rice tolerance)” value was 3.0 in data set [1] (0.0313 kg/ha), 4.0 in data set [1] (0.0625 kg/ha), 5.0 in data set [1] (0.1250 kg/ha) and 6.0 in data set [1] (0.2500 kg/ha). For the same compound, the “herbicidal effect rating, MOOVA” value in data set [2] (0.0313 kg/ha), in data set [2] (0.0625 kg/ha), in data set [2] (0.1250 kg/ha) and in data set [2] (0.2500 kg/ha) was 9.0 throughout. Also, the “herbicidal effect rating, ECHORC” value in data set [3] (0.0313 kg/ha), in data set [3] (0.0625 kg/ha), in data set [3] (0.1250 kg/ha) and in data set [3] (0.2500 kg/ha) was 9.0 in each case. The “herbicidal effect rating, SAGPY” value in the data set with Sagittaria pygmaea, L. (0.0313 kg/ha) came to 0.0; in the data set on Sagittaria pygmaea, L. (0.0625 kg/ha), 0.0; in the data set on Sagittaria pygmaea, L. (0.1250 kg/ha) it was 0.0; with Sagittaria pygmaea, L. (0.2500 kg/ha), 0.0. Also, the “herbicidal effect rating, CYPSE” value in data set [4] (0.0313 kg/ha), in data set [4] (0.0625 kg/ha), in data set [4] (0.1250 kg/ha) and in data set [4] (0.2500 kg/ha) was 0.0 in each case. Further, the “herbicidal effect rating, CYPIR” value in the data set on Cyperus iria (0.0313 kg/ha), in the data set with Cyperus iria (0.0625 kg/ha), with Cyperus iria (0.1250 kg/ha) and in the data set with Cyperus iria (0.2500 kg/ha) was 9.0 throughout.

In the case of `CNC(=O)OCc1nsc2ccc(-n3c(=O)cc(C(F)(F)F)n(C)c3=O)cc12` [Example 374, 2,4(1H,3H)-Pyrimidinedione, 3-[3-(hydroxymethyl)1,2-benzisothiazol-5-yl]-1-methyl-6-(trifluoromethyl)-, methylcarbamate (ester)], the “herbicidal effect rating ORYSAT” value in data set [1] (Rate 0.0320 kg/ha) came out at 4.0; in data set [1] (Rate 0.0620 kg/ha) it was 4.0; in data set [1] (Rate 0.1250 kg/ha), 6.0; in data set [1] (Rate 0.2500 kg/ha), 7.0. In addition, the “herbicidal effect rating, MOOVA” value in data set [2] (Rate 0.0320 kg/ha), in data set [2] (Rate 0.0620 kg/ha), in data set [2] (Rate 0.1250 kg/ha) and in data set [2] (Rate 0.2500 kg/ha) was 9.0 each time. In addition, the “herbicidal effect rating, ECHORC” value in data set [3] (Rate 0.0320 kg/ha) was determined as 3.0; in data set [3] (Rate 0.0620 kg/ha), 3.0; in data set [3] (Rate 0.1250 kg/ha), 4.0; in data set [3] (Rate 0.2500 kg/ha), 6.0. The “herbicidal effect rating, SAGPY” value stood at 2.0 in the data set on Sagittaria pygmaea, L. (Rate 0.0320 kg/ha); 3.0 with Sagittaria pygmaea, L. (Rate 0.0620 kg/ha); 6.0 with Sagittaria pygmaea, L. (Rate 0.1250 kg/ha); 9.0 with Sagittaria pygmaea, L. (Rate 0.2500 kg/ha). In addition, the “herbicidal effect rating, CYPSE” value in data set [4] (Rate 0.0320 kg/ha) came out at 0.0; in data set [4] (Rate 0.0620 kg/ha) it was 0.0; in data set [4] (Rate 0.1250 kg/ha), 0.0; in data set [4] (Rate 0.2500 kg/ha), 5.0. For the same compound, the “herbicidal effect rating, CYPIR” value with Cyperus iria (Rate 0.0320 kg/ha) is 6.0; in the data set on Cyperus iria (Rate 0.0620 kg/ha) it was 9.0; in the data set on Cyperus iria (Rate 0.1250 kg/ha), 9.0; in the data set with Cyperus iria (Rate 0.2500 kg/ha) it was 9.0.

Regarding `Cn1c(C(F)(F)F)cc(=O)n(-c2ccc3snc(C(Br)C#N)c3c2)c1=O` (stereo not drawn) [Example 264, 1,2-Benzisothiazole-3-acetonitrile, alpha-bromo-5-[3,6-dihydro-3-methyl-2,6-dioxo-4-(trifluoromethyl)-1(2H)-pyrimidinyl]-], the “ORYSAT herbicidal effect rating” value in data set [1] (Rate 0.0320 kg/ha) is recorded as 0.0; in data set [1] (Rate 0.0620 kg/ha), 0.0; in data set [1] (Rate 0.1250 kg/ha) it was 0.0; in data set [1] (Rate 0.2500 kg/ha), 5.0. Besides, the “MOOVA herbicidal effect rating” value in data set [2] (Rate 0.0320 kg/ha), in data set [2] (Rate 0.0620 kg/ha), in data set [2] (Rate 0.1250 kg/ha) and in data set [2] (Rate 0.2500 kg/ha) was 9.0 throughout. In addition, the “ECHORC herbicidal effect rating” value in data set [3] (Rate 0.0320 kg/ha) amounted to 0.0; in data set [3] (Rate 0.0620 kg/ha) it was 0.0; in data set [3] (Rate 0.1250 kg/ha), 0.0; in data set [3] (Rate 0.2500 kg/ha), 2.0. Also, the “SAGPY herbicidal effect rating” value in the data set on Sagittaria pygmaea, L. (Rate 0.0320 kg/ha) was found to be 0.0; with Sagittaria pygmaea, L. (Rate 0.0620 kg/ha), 0.0; in the data set with Sagittaria pygmaea, L. (Rate 0.1250 kg/ha) it was 0.0; in the data set with Sagittaria pygmaea, L. (Rate 0.2500 kg/ha) it was 0.0. Also, the “CYPSE herbicidal effect rating” value in data set [4] (Rate 0.0320 kg/ha) was 4.0; in data set [4] (Rate 0.0620 kg/ha), 4.0; in data set [4] (Rate 0.1250 kg/ha) it was 9.0; in data set [4] (Rate 0.2500 kg/ha), 9.0. Further, the “CYPIR herbicidal effect rating” value in the data set on Cyperus iria (Rate 0.0320 kg/ha), in the data set on Cyperus iria (Rate 0.0620 kg/ha), with Cyperus iria (Rate 0.1250 kg/ha) and in the data set on Cyperus iria (Rate 0.2500 kg/ha) was 5.0 each time.
